In US12391674B2, “Heterocyclic compounds for the treatment of epilepsy” (OTSUKA PHARMACEUTICAL CO., LTD., priority 2018, dated 2025) one finds inhibition in vivo data, which are given here for 68 compounds.

The structures appear in SMILES notation.

One experiment has as its system DBA/2 mice. The experiment in a line: Audiogenic seizure model. It counts as in vivo. The following applies: Mus musculus; DBA/2 mice, oral, dose 3 mg/kg, auditory stimulation 1 hour after administration; read-out: Seizure suppression. As for the experimental part: The animal model used in this test is a phenotype model for partial seizure (including secondary generalized seizure) and generalized tonic-clonic seizure, and has high clinical predictability. This test was performed in accordance with the report of De Sarro et al (Br J Pharmacol. 1988 February; 93 (2): 247-56. Anticonvulsant effects of some calcium entry blockers in DBA/2 mice. De Sarro G B, Meldrum B S, Nistico G.).
In this test example, the example compounds shown in Tables 3-1 to 3-3 below were used as test compounds.
The test compounds were suspended in 5% gum arabic/distilled water (w/v), and administered by forced oral administration to male and female DBA/2 mice (Japan SLC, Inc., 3 weeks old, 8 per group) at a dose of 30 mg/kg. After one hour of the oral administration of the test compound, each mouse was placed in a transparent acrylic cylinder 30 cm high and 23 cm in diameter, and 30 seconds were allowed for habituation. Then, they were exposed to auditory stimulation (12.6 kHz, 100-110 dB) for 1 minute or until a tonic seizure occurred.
The seizure response was assessed using the following scale, 0: no seizure, 1: wild running, 2: clonic seizure, 3: tonic seizure and 4: respiratory arrest. The maximum response was recorded as the seizure severity score.
The seizure suppression rate for each compound administration group was calculated according to the following formula.
Here, a rate of seizure suppression of 90% or more was expressed as “A”, a rate of seizure suppression of 70% or more and less than 90% was expressed as “B”, and a rate of seizure suppression of 50% or more and less than 70% was expressed as “C”.
For `COc1ccc(-c2cnc(Oc3cccc(C(F)(F)F)c3)nc2)nn1` [Example 12], the inhibition in vivo at 3 mg/kg is above 90%.

Take `Cc1ccc(-c2cnc(Oc3cccc(C(F)(F)F)c3)nc2)nn1` [Example 13]: the inhibition in vivo at 3 mg/kg is above 90%.

Staying with this experiment, now noted: Mus musculus; DBA/2 mice, oral, dose 5 mg/kg, auditory stimulation 1 hour after administration; read-out: Seizure suppression.
Regarding `Cc1cccc(Oc2ncc(-c3ccc(=O)[nH]c3)cn2)c1` [Example 106, 5-(2-(m-Tolyloxy)Pyrimidin-5-Yl)Pyridin-2 (1H)-One], the inhibition in vivo at 5 mg/kg is above 90%.

On to `Fc1cc(F)cc(Oc2ncc(-c3ccc4nccn4c3)cn2)c1` [Example 169], for which the inhibition in vivo at 5 mg/kg was above 90%.

The experiment is the same for the next values; noted with them: Mus musculus; DBA/2 mice, oral, dose 30 mg/kg, auditory stimulation 1 hour after administration; read-out: Seizure suppression.
In the case of `Nc1cc(-c2cnc(Oc3ccc(F)cc3)nc2)ccn1` [Example 79], the inhibition in vivo at 30 mg/kg was above 90%.

On to `Fc1ccccc1Oc1ncc(-c2ccc3ccnn3c2)cn1` [Example 152], for which the inhibition in vivo at 30 mg/kg is above 90%.

On to `Cc1nc2ccc(-c3cnc(Oc4ccccc4F)nc3)cn2c1C` [Example 202], for which the inhibition in vivo at 30 mg/kg is above 90%.

Consider `O=C1CCOCCN1c1cnc(Oc2ccccc2)nc1` [Example 232], for which the inhibition in vivo at 30 mg/kg is above 90%.

As to `Fc1ccccc1Oc1ncc(-c2ccc3cnc(C(F)(F)F)n3c2)cn1` [Example 286], the inhibition in vivo at 30 mg/kg is above 90%.

In the case of `COc1nc(Oc2ccccc2)ncc1-c1ccc2nccn2c1` [Example 142], the inhibition in vivo at 30 mg/kg is above 90%.

Consider `Nc1cc(-c2cnc(Oc3cc(F)cc(F)c3)nc2)ccn1` [Example 82], for which the inhibition in vivo at 30 mg/kg is above 90%.

Turning to `Cc1cn2cc(-c3cnc(Oc4ccc(F)cc4)nc3)ccc2n1` [Example 180], the inhibition in vivo at 30 mg/kg was above 90%.

Regarding `Fc1cccc(Oc2ncc(-c3ccc4cnnn4c3)cn2)c1` [Example 175], the inhibition in vivo at 30 mg/kg is above 90%.

Turning to `COc1ccc(-c2cnc(Oc3ccc(F)cc3F)nc2)nn1` [Example 65], the inhibition in vivo at 30 mg/kg is above 90%.

Consider `Fc1ccc(Oc2ncc(-c3ccc4cnc(C(F)(F)F)n4c3)cn2)cc1` [Example 288], for which the inhibition in vivo at 30 mg/kg is above 90%.

`O=C1CCN(c2ccc(-c3ccccc3)cc2)C(=O)N1` [Example 327, 1-((1,1′-Biphenyl)-4-Yl)Dihydropyrimidine-2,4 (1H,3H)-Dione]: the inhibition in vivo at 30 mg/kg lay within 50 to 70%.

For `c1ccc(Oc2ncc(-c3ccn4ncnc4c3)cn2)cc1` [Example 135], the inhibition in vivo at 30 mg/kg is above 90%.

With `Nc1cn2cc(-c3cnc(Oc4ccccc4)nc3)ccc2n1` [Example 140], the inhibition in vivo at 30 mg/kg is above 90%.

In the case of `Clc1ccc(-c2cnc(Oc3ccccc3)nc2)cn1` [Example 51], the inhibition in vivo at 30 mg/kg was above 90%.

Regarding `Fc1ccccc1Oc1ncc(-c2ccc3nccn3n2)cn1` [Example 124], the inhibition in vivo at 30 mg/kg was above 90%.

For the compound `Fc1ccccc1Oc1ncc(-c2ccc3nnc(C(F)(F)F)n3c2)cn1` [Example 280], the inhibition in vivo at 30 mg/kg is above 90%.

For `CN1C(=O)CCN(c2ccc(Oc3cccc(F)c3)cc2)C1=O` [Example 308, 1-(4-(3-Fluorophenoxy)Phenyl)-3-Methyldihydropyrimidine-2,4 (1H,3H)-Dione], the inhibition in vivo at 30 mg/kg was in the range of 50 to 70%.

On to `c1ccc(Oc2ncc(-c3ccc4ncncc4c3)cn2)cc1` [Example 255], for which the inhibition in vivo at 30 mg/kg was above 90%.

In the case of `O=C1CCC(c2cnc(Oc3cc(F)cc(F)c3)nc2)=NN1` [Example 105], the inhibition in vivo at 30 mg/kg was above 90%.

As for `O=C1CCN(c2ccc(Cc3ccc(F)cc3)cc2)C(=O)N1` [Example 338], the inhibition in vivo at 30 mg/kg lay in the range of 50 to 70%.

With `COc1cc(-c2cnc(Oc3ccccc3)nc2)ccn1` [Example 23], the inhibition in vivo at 30 mg/kg was above 90%.

For the compound `Cc1ccc(-c2cnc(Oc3cccc(C(F)(F)F)c3)nc2)cn1` [Example 15], the inhibition in vivo at 30 mg/kg is above 90%.

Regarding `Fc1ccc(Oc2ncc(-c3ccc4cnnn4c3)cn2)cc1` [Example 176], the inhibition in vivo at 30 mg/kg is above 90%.

For the compound `COc1ccc(-c2cnc(Oc3cccc(C(F)(F)F)c3)nc2)cn1` [Example 16], the inhibition in vivo at 30 mg/kg is above 90%.

With `[O-][n+]1cccc(-c2cnc(Oc3ccccc3F)nc2)c1` [Example 60, 3-(2-(2-Fluorophenoxy)Pyrimidin-5-Yl)Pyridine 1-Oxide], the inhibition in vivo at 30 mg/kg is above 90%.

As for `Cc1cn2cc(-c3cnc(Oc4cccc(F)c4)nc3)ccc2n1` [Example 179], the inhibition in vivo at 30 mg/kg is above 90%.

In the case of `Fc1cc(F)cc(Oc2ncc(-c3cccnc3)cn2)c1` [Example 18], the inhibition in vivo at 30 mg/kg is above 90%.

On to `Fc1ccc(Oc2ncc(-c3ccc4nncn4n3)cn2)cc1` [Example 292], for which the inhibition in vivo at 30 mg/kg was above 90%.

For `[O-][n+]1cccc(-c2cnc(Oc3cccc(F)c3)nc2)c1` [Example 61], the inhibition in vivo at 30 mg/kg was above 90%.

On to `Cc1cn2cc(-c3cnc(Oc4ccccc4F)nc3)ccc2n1` [Example 178], for which the inhibition in vivo at 30 mg/kg is above 90%.

In the case of `[O-][n+]1cccc(-c2cnc(Oc3ccc(F)cc3)nc2)c1` [Example 62], the inhibition in vivo at 30 mg/kg was above 90%.

Consider `Cc1ccc(-c2cnc(Oc3ccccc3)nc2)c(C)n1` [Example 70], for which the inhibition in vivo at 30 mg/kg was above 90%.

`O=c1[nH]cnc2ccc(-c3cnc(Oc4ccccc4)nc3)cc12` [Example 254]: the inhibition in vivo at 30 mg/kg was above 90%.

`Fc1ccccc1Oc1ncc(-c2cn3ccnc3cn2)cn1` [Example 149]: the inhibition in vivo at 30 mg/kg is above 90%.

On to `Fc1cccc(Oc2ncc(-c3ccc(C(F)(F)F)nn3)cn2)c1` [Example 46], for which the inhibition in vivo at 30 mg/kg was above 90%.

Turning to `c1ccc(Oc2ncc(-c3ccc4ccncc4c3)cn2)cc1` [Example 252], the inhibition in vivo at 30 mg/kg was above 90%.

`OC1CCN(c2cnc(Oc3cccc(F)c3)nc2)CC1` [Example 227]: the inhibition in vivo at 30 mg/kg was above 90%.

For the compound `O=C1CCC(c2cnc(Oc3c(F)cccc3F)nc2)=NN1` [Example 104], the inhibition in vivo at 30 mg/kg was above 90%.

Regarding `Cc1nc(Oc2ccccc2)ccc1N1CCC(=O)NC1=O` [Example 326], the inhibition in vivo at 30 mg/kg is 50 to 70%.

In the case of `Cc1cc(Oc2cccc(F)c2)ccc1N1CCC(=O)NC1=O` [Example 334], the inhibition in vivo at 30 mg/kg fell in the range of 50 to 70%.

In the case of `COCc1cn2cc(-c3cnc(Oc4ccccc4)nc3)ccc2n1` [Example 208], the inhibition in vivo at 30 mg/kg was above 90%.

On to `CC(C)(O)c1ccc(-c2cnc(Oc3ccccc3)nc2)nn1` [Example 69, 2-(6-(2-Phenoxypyrimidin-5-Yl)Pyridazin-3-Yl) Propan-2-Ol], for which the inhibition in vivo at 30 mg/kg is above 90%.

`Cc1nc2ccc(-c3cnc(Oc4ccc(F)cc4)nc3)cn2c1C` [Example 203]: the inhibition in vivo at 30 mg/kg is above 90%.

Consider `Fc1cccc(Oc2ncc(-c3ccn4ccnc4c3)cn2)c1` [Example 131], for which the inhibition in vivo at 30 mg/kg was above 90%.

Regarding `COc1ccc(-c2cnc(Oc3cccc(C#N)c3)nc2)nn1` [Example 73], the inhibition in vivo at 30 mg/kg is above 90%.

On to `Nc1ccc(-c2cnc(Oc3cccc(OC(F)(F)F)c3)nc2)cn1` [Example 48], for which the inhibition in vivo at 30 mg/kg is above 90%.

Take `O=C1CCc2ccc(-c3cnc(Oc4ccccc4)nc3)cc2N1` [Example 246]: the inhibition in vivo at 30 mg/kg was above 90%.

Turning to `COCc1cn2cc(-c3cnc(Oc4cccc(F)c4)nc3)ccc2n1` [Example 210], the inhibition in vivo at 30 mg/kg was above 90%.

As for `c1ccc(Oc2ncc(-c3cccc4nccn34)cn2)cc1` [Example 136], the inhibition in vivo at 30 mg/kg is above 90%.

Consider `Cc1ncccc1-c1cnc(Oc2cccc(OC(F)(F)F)c2)nc1` [Example 77], for which the inhibition in vivo at 30 mg/kg was above 90%.

With `Cn1ccc2c(-c3cnc(Oc4ccccc4)nc3)cccc21` [Example 263], the inhibition in vivo at 30 mg/kg was above 90%.

As for `Cc1nc2cc(-c3cnc(Oc4cccc(F)c4)nc3)ccn2c1C` [Example 206], the inhibition in vivo at 30 mg/kg was above 90%.

With `O=C1Nc2ccc(-c3cnc(Oc4ccccc4)nc3)cc2C1=O` [Example 271], the inhibition in vivo at 30 mg/kg is above 90%.

For the compound `Cc1cn2ccc(-c3cnc(Oc4cccc(F)c4)nc3)cc2n1` [Example 183], the inhibition in vivo at 30 mg/kg is above 90%.

In the case of `O=c1ccc(-c2cnc(Oc3cccc(Cl)c3)nc2)n[nH]1` [Example 111], the inhibition in vivo at 30 mg/kg is above 90%.

Turning to `Fc1ccc(Oc2ncc(-c3ccn4nccc4c3)cn2)cc1` [Example 197], the inhibition in vivo at 30 mg/kg is above 90%.

On to `Cn1ncc2ccc(-c3cnc(Oc4ccccc4F)nc3)nc21` [Example 276], for which the inhibition in vivo at 30 mg/kg was above 90%.

As to `Fc1cccc(Oc2ncc(-c3ccn4cnnc4c3)cn2)c1` [Example 212], the inhibition in vivo at 30 mg/kg is above 90%.

In the case of `O=C1NCCc2cc(-c3cnc(Oc4ccccc4)nc3)ccc21` [Example 247], the inhibition in vivo at 30 mg/kg was above 90%.

`COc1ccc(-c2cnc(Oc3cccc(F)c3F)nc2)nn1` [Example 68]: the inhibition in vivo at 30 mg/kg is above 90%.

With `Nc1cc(-c2cnc(Oc3ccccc3F)nc2)ccn1` [Example 80], the inhibition in vivo at 30 mg/kg was above 90%.

Consider `Nc1ccc(-c2cnc(Oc3ccc(F)cc3)nc2)cn1` [Example 44], for which the inhibition in vivo at 30 mg/kg is above 90%.

Turning to `Nc1cc(-c2cnc(Oc3cccc(OC(F)(F)F)c3)nc2)ccn1` [Example 83], the inhibition in vivo at 30 mg/kg is above 90%.
